According to patent US20130053277A1 (priority 2010, published 2013):

Columns and labels:
[1] = biological target: influenza A virus M2 proton-selective ion channel, wild-type (Influenza A virus, UniProt P0DOF5); settings: cited from earlier work
[2] = biological target: M2 H+ channel, Singapore wild-type (Influenza A virus, UniProt P10920); format: cell-based, Influenza A (Singapore H2N2 isolate)
Chain of M2 H+ channel, Singapore wild-type (P10920 whole entry, looked up): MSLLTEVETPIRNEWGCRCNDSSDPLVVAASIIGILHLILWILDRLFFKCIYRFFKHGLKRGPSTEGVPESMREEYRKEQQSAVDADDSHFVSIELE

Chain of influenza A virus M2 proton-selective ion channel, wild-type (P0DOF5 whole entry, looked up): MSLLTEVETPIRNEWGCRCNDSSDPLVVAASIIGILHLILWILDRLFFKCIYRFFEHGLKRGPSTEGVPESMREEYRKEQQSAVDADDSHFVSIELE

SMILES | isochronic apparent inhibitory binding constant [1] [µM] | Ks (Monod coefficient, inhibitory constant) [2] [nM] | relief of growth inhibition by the channel from the Singapore strain [2] | Ks (dynamic range statement) [2] [nm] | activity (growth retardation relief, O.D.600) compared between the two drugs [2] | relief of growth retardation of bacteria expressing the M2 channel [2]
NC12CC3CC(CC(C3)C1)C2 [amantadine, Amantadine] | 16 | 140 | substantially relieved | – | – | –
CC(N)C12CC3CC(CC(C3)C1)C2 (centres unmarked) [rimantadine, Rimantadine] | – | 15 | substantially relieved | 15 | more pronounced than amantadine | significantly alleviate
